Measured values: PMC7827406, “Structure–Activity Relationship (SAR) Study of Spautin-1 to Entail the Discovery of Novel NEK4 Inhibitors” (International Journal of Molecular Sciences, 2021)
Like-named read-outs stand apart in the source and are kept apart here.

Columns and labels:
Test in all cases: biochemical
Parameters in all cases: Eurofins KinaseProfiler full panel at Km ATP, residual kinase activity (%) relative to DMSO
[1] = biological target: T1, NEK9(h) (Homo sapiens, UniProt Q8TD19)
T1 sequence (Q8TD19 1-979): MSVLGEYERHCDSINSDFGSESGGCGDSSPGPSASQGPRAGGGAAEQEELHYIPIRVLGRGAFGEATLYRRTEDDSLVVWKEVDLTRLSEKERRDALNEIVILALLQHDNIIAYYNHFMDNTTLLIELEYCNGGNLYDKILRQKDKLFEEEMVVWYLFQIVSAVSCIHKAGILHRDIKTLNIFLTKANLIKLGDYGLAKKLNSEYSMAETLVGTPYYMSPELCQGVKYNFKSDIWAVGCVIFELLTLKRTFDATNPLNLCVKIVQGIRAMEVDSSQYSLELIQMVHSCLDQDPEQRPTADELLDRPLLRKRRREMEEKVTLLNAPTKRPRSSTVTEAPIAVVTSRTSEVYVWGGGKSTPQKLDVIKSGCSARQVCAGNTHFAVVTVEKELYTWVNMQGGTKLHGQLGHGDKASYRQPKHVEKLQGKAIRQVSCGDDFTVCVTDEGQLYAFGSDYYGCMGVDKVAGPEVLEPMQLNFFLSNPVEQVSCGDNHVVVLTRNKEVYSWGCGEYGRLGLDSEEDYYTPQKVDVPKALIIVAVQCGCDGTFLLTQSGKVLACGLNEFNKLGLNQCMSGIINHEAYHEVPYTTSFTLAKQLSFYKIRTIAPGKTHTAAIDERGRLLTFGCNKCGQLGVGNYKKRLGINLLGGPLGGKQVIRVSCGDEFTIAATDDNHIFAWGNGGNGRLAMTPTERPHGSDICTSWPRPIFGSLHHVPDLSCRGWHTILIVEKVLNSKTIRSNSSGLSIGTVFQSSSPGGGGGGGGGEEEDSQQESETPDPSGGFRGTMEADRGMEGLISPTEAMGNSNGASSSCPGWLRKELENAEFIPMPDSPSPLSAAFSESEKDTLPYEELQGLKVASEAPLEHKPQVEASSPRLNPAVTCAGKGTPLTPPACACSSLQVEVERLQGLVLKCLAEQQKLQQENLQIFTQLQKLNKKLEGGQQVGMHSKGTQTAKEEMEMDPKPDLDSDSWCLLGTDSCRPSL
Summary of the method: (§1)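 Two 10 µM single-concentration screens were run: a competition-binding screen, in which DNA-tagged kinase bound to immobilized ligands was quantified by qPCR, and a radiometric activity panel at Km ATP. Each is expressed as residual kinase activity (%).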

[2] = biological target: T2, ULK1(h) (Homo sapiens, UniProt O75385)
T2 sequence (O75385 1-1050): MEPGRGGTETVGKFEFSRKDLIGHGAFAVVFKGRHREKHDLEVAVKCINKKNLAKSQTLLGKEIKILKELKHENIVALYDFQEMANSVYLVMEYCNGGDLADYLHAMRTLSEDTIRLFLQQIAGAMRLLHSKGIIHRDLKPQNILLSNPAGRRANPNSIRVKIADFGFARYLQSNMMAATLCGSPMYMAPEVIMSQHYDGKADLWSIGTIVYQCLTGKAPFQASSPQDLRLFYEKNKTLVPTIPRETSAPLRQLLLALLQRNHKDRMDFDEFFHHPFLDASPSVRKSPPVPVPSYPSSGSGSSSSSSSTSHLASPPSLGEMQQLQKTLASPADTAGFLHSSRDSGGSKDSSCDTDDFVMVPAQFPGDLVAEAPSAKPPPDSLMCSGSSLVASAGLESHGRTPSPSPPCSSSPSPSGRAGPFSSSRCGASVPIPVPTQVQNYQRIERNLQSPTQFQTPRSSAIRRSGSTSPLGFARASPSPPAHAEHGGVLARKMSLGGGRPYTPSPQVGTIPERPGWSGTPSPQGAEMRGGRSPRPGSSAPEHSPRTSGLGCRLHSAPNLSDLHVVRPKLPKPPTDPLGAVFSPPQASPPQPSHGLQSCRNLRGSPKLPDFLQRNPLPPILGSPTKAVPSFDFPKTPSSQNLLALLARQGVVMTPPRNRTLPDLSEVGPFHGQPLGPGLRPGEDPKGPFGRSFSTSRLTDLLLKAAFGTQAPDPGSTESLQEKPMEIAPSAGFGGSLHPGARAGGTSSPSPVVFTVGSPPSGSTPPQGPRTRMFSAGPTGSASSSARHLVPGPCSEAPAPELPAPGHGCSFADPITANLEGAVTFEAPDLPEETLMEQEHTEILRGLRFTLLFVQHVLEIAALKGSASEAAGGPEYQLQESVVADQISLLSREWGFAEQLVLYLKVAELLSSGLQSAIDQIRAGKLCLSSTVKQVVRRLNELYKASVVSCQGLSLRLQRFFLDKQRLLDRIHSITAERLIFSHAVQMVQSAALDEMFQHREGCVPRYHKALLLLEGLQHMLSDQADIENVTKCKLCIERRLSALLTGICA
Summary of the method: as §1

[3] = biological target: CDK17/cyclinY(h) (Homo sapiens, UniProt Q00537)
Sequence of CDK17/cyclinY(h) (Q00537 whole entry): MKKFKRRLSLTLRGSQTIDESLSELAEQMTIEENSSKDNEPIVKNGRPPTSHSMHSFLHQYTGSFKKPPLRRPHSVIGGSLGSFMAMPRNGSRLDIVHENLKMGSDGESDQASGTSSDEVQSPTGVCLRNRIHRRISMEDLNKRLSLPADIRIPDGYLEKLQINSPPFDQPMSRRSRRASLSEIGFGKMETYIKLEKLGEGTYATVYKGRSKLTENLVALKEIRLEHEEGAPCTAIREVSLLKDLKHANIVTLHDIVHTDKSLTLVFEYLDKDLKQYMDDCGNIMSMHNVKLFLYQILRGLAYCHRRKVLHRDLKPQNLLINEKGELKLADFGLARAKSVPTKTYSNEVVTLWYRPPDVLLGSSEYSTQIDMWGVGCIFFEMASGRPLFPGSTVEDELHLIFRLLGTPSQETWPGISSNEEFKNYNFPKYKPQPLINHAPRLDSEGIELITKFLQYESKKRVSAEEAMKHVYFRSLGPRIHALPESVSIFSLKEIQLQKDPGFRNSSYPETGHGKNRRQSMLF
Sequence of CDK17/cyclinY(h) (Q8ND76 whole entry partner): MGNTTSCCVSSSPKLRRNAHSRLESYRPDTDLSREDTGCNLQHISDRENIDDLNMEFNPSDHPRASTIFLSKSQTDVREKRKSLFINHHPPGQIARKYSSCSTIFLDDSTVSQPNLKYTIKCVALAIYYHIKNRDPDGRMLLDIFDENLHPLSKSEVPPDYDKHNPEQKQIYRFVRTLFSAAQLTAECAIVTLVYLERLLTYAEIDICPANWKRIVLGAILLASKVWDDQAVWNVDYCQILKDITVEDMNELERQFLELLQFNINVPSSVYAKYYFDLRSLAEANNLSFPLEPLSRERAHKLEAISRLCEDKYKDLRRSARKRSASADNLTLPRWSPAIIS
Summary of the method: as §1

[4] = biological target: TTBK2(h) (Homo sapiens, UniProt Q6IQ55)
Sequence of TTBK2(h) (Q6IQ55 whole entry): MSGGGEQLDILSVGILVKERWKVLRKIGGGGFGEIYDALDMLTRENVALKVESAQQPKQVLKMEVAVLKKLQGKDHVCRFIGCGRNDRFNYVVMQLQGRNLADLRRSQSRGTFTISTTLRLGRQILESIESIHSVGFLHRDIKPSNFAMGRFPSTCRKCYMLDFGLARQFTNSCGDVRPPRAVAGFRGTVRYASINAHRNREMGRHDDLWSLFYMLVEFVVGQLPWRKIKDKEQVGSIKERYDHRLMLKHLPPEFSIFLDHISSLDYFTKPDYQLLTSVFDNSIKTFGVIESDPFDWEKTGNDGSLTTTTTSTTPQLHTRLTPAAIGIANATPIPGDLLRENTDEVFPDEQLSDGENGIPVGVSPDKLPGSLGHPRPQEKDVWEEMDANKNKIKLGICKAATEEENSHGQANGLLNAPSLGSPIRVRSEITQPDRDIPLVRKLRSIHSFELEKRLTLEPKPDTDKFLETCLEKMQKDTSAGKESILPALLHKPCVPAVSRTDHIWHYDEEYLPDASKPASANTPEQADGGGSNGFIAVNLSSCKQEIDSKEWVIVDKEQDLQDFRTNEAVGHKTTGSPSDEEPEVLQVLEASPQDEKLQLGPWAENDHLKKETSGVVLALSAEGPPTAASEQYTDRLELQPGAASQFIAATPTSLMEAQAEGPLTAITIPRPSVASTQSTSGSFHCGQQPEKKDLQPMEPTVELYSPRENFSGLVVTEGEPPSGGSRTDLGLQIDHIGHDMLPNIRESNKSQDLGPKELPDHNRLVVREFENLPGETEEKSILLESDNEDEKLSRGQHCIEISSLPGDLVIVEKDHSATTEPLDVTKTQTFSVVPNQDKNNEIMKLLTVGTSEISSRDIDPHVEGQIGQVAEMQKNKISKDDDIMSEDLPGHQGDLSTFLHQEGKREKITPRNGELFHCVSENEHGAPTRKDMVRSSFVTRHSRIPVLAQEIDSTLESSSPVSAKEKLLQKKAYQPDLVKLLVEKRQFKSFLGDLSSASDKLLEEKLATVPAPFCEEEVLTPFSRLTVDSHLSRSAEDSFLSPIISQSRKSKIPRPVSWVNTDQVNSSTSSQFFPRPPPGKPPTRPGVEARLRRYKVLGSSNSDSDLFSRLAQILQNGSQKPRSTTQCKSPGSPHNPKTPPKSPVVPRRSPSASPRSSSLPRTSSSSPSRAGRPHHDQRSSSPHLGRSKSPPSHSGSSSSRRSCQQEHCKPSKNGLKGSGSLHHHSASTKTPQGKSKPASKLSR
Summary of the method: as §1

[5] = biological target: T3, CK2α1(h) (Homo sapiens, UniProt P68400)
T3 construct: gene CSNK2A1
T3 sequence (P68400 whole entry): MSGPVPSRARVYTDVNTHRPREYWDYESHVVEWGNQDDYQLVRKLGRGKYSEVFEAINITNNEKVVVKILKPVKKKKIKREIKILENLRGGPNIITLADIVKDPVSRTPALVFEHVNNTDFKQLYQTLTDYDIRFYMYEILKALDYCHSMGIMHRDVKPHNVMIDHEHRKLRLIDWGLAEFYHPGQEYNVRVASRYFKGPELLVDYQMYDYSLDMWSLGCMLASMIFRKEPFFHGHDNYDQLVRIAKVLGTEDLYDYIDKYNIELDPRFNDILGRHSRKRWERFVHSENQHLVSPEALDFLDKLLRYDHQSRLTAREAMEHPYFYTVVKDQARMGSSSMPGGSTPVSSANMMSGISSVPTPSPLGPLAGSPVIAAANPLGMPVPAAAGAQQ
Summary of the method: as §1

[6] = biological target: T4, cKit(h) (Homo sapiens, UniProt P10721)
T4 construct: gene KIT
T4 sequence (P10721 whole entry): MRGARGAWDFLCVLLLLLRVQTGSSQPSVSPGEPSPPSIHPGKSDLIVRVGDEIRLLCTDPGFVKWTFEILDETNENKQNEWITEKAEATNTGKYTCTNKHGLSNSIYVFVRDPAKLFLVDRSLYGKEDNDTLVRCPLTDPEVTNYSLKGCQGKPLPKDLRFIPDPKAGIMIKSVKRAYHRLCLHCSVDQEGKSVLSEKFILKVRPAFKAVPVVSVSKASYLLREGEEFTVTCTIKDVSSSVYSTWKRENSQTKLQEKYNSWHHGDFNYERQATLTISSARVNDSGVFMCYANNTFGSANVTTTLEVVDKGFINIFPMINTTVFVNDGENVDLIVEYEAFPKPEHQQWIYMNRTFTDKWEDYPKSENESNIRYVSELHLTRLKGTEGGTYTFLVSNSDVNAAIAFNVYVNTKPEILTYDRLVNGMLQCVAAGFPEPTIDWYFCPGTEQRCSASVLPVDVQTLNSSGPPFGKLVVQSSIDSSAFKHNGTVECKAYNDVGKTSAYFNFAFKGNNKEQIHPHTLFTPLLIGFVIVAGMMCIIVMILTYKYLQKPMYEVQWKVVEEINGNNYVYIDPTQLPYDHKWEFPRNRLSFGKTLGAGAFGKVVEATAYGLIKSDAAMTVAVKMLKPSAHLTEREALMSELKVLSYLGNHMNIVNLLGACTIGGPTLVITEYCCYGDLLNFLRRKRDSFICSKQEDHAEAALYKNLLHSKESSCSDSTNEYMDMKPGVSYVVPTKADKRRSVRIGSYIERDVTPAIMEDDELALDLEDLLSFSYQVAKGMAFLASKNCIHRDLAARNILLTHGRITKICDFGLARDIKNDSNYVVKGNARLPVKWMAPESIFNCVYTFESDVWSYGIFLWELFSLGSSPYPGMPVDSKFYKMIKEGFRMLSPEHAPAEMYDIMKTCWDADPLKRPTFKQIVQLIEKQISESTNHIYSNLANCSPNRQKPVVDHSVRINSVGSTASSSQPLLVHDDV
Summary of the method: as §1

[7] = read-out: Residual activity (%) Spautin-1 5aa
[8] = read-out: Residual activity (%) 5as
[9] = read-out: Residual activity (%) 5at
[10] = read-out: Residual activity (%) 5ay

Compound: Fc1ccc(CNc2ncnc3ccc(F)cc23)cc1 [5aa, 6-Fluoro-N-(4-fluorobenzyl)-4-Quinazolinamine]
- remaining activity at 10 µM [1, 7]: 98%
- remaining activity at 10 µM [2, 7]: 99%
- remaining activity at 10 µM [3, 7]: 82%
- remaining activity at 10 µM [4, 7]: 117%
- remaining activity at 10 µM [5, 7]: 105%
- remaining activity at 10 µM [6, 7]: 93%

Compound: Fc1ccc(CCNc2ncnc3ccc(F)cc23)cc1 [5as, 6-Fluoro-N-[2-(4-Fluorophenyl)Ethyl]-4-Quinazolinamine]
- remaining activity at 10 µM [1, 8]: 103%
- remaining activity at 10 µM [2, 8]: 91%
- remaining activity at 10 µM [3, 8]: 80%
- remaining activity at 10 µM [4, 8]: 107%
- remaining activity at 10 µM [5, 8]: 84%
- remaining activity at 10 µM [6, 8]: 78%

Compound: Fc1ccc2ncnc(NCCc3ccc(Cl)cc3)c2c1 [5at, N-[2-(4-Chlorophenyl)Ethyl]-6-Fluoro-4-Quinazolinamine]
- remaining activity at 10 µM [1, 9]: 92%
- remaining activity at 10 µM [2, 9]: 84%
- remaining activity at 10 µM [3, 9]: 88%
- remaining activity at 10 µM [4, 9]: 111%
- remaining activity at 10 µM [5, 9]: 78%
- remaining activity at 10 µM [6, 9]: 71%

Compound: COc1ccc2ncnc(Nc3cccc(F)c3)c2c1 [5ay, N-(3-Fluorophenyl)-6-Methoxy-4-Quinazolinamine]
- remaining activity at 10 µM [1, 10]: 92%
- remaining activity at 10 µM [2, 10]: 93%
- remaining activity at 10 µM [3, 10]: 74%
- remaining activity at 10 µM [4, 10]: 114%
- remaining activity at 10 µM [6, 10]: 83%
